Test system: mice of the NZO strain (genetically obese, hyperglycaemic and hyperinsulinaemic)
Assay: APP given intraperitoneally to NZO mice: blood glucose, serum insulin, weight, oral Glucose Tolerance Test
Format: in vivo
Conditions: mean of APP-treated group, 1 μg i.p. 3 times a day; for Serum Insulin: Beef equivalent
Source text: It has now unexpectedly been found by the Applicants that these vertebrate pancreatic polypeptides (hereinafter collectively referred to as VPPs, which term should be understood to include such polypeptides of avian, amphibian, piscian, reptilian or mammalian origin) are as a class effective in lowering the concentration in the blood of both glucose and insulin when administered to a strain (NZO) of genetically obese, hyperglycaemic and hyperinsulinaemic mice. At the same time these treated mice lose weight as compared with untreated control animals and give normalized values in the oral Glucose Tolerance Test standard in the art.
APP (Endocrinology 83, 1323 (1968)) (1 μg) in water (0.1 ml) was administered by intraperitoneal injection 3 times a day for 25 days to each of 5 male mice (age 6 weeks, weight 23 g) of the NZO strain (genetically obese, hyperglycaemic and hyperinsulinaemic). 5 Matched control animals each received plain water (0.1 ml) by the same route and according to the same schedule. The blood glucose and serum insulin levels were measured at the start and during the course of the experiment and the mean results for the APP-treated group are shown in Table 1. No change in these levels from the values on day 0, which were the same as in the treated group, occurred in the control group over the course of the experiment.

avian pancreatic polypeptide [APP]
Serum Insulin (Day 0 (start)): 189 μU/ml | Blood glucose (Day 0 (start), 5 male NZO mice): 175 mg. % | Blood glucose (Day 5): 162 mg. % | Serum Insulin (Day 10): 99 μU/ml | Blood glucose (Day 15): 154 mg. % | Serum Insulin (Day 20): 47 μU/ml | Blood glucose (Day 25): 136 mg. %
